This note sets out measurements from US9365584B2, “Thieno [2,3-B] pyridinedione activators of AMPK and therapeutic uses thereof” (Poxel, priority 2009, dated 2016).

The subject of this experiment is AMPK. Briefly: AMPK enzyme activity assay (Delfia technology, AMARA peptide substrate). In kind it is biochemical. The note with it: compound at 30 μM vs AMP at 200 μM. The gist of the method:
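Value is the ratio of compound (30 μM) to AMP (200 μM) response, each as % of basal control. Phosphorylation of the AMARA peptide after AMPK addition was read by Delfia with an anti-phosphoserine antibody.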

With `CC1(c2ccc(S(C)(=O)=O)cc2)C(=O)Nc2sc(Cl)c(-c3cccc(F)c3)c2C1=O` (stereo not drawn) [No 149, 2-chloro-3-(3-fluorophenyl)-5-methyl-5-(4-methyl-sulfonylphenyl)-7H-thieno[2,3-b]pyridine-4,6-dione], the “Activity: Ratio between the % of control (basal activity) of compound of formula (1) at 30 μM and the % of control (basal activity) of AMP (natural substrate) at 200 μM” value (shortened to “Activity: Ratio between the % of control”) is “A (0%<A<50%)”.

As to `COc1ccc(C2(C)C(=O)Nc3sc(Cl)c(-c4ccc(C)cc4)c3C2=O)cc1` (stereo not drawn) [No 150, 2-chloro-5-(4-methoxyphenyl)-5-methyl-3-(p-tolyl)-7H-thieno[2,3-b]pyridine-4,6-dione], the “Activity: Ratio between the % of control” value is “A (0%<A<50%)”.

In the case of `O=C1Nc2sc(Cl)c(-c3cc(F)ccc3OCc3ccccc3)c2C(=O)C1(F)c1ccccc1` (stereo not drawn) [No 151, 3-(2-benzyloxy-5-fluoro-phenyl)-2-chloro-5-fluoro-5-phenyl-7H-thieno[2,3-b]pyridine-4,6-dione], the “Activity: Ratio between the % of control” value is “A (0%<A<50%)”.

As for `COc1ccc(OCc2ccccc2)c(-c2csc3c2C(=O)C(F)(c2ccccc2)C(=O)N3)c1` (stereo not drawn) [No 152, 3-(2-benzyloxy-5-methoxy-phenyl)-5-fluoro-5-phenyl-7H-thieno[2,3-b]pyridine-4,6-dione], the “Activity: Ratio between the % of control” value is reported as “B (50%≦B<75%)”.

As to `COc1ccc(-c2c(Cl)sc3c2C(=O)C(C)(c2ccccc2F)C(=O)N3)cc1` (stereo not drawn) [No 153, 2-chloro-5-(2-fluorophenyl)-3-(4-methoxyphenyl)-5-methyl-7H-thieno[2,3-b]pyridine-4,6-dione], the “Activity: Ratio between the % of control” value is on record as “A (0%<A<50%)”.

Take `COc1ccc(C2(C)C(=O)Nc3sc(Cl)c(-c4cccc(C)c4)c3C2=O)cc1` (stereo not drawn) [No 155, 2-chloro-5-(4-methoxyphenyl)-5-methyl-3-(m-tolyl)-7H-thieno[2,3-b]pyridine-4,6-dione]: the “Activity: Ratio between the % of control” value is “A (0%<A<50%)”.

`Cc1cccc(-c2c(Cl)sc3c2C(=O)C(C)(c2ccccc2F)C(=O)N3)c1` (stereo not drawn) [No 156, 2-chloro-5-(2-fluorophenyl)-5-methyl-3-(m-tolyl)-7H-thieno[2,3-b]pyridine-4,6-dione]: the “Activity: Ratio between the % of control” value is “A (0%<A<50%)”.

With `O=C1Nc2sc(Cl)c(-c3cccc(F)c3)c2C(=O)C1(F)c1ccccc1` (stereo not drawn) [No 157, 2-chloro-5-fluoro-3-(3-fluorophenyl)-5-phenyl-7H-thieno[2,3-b]pyridine-4,6-dione], the “Activity: Ratio between the % of control” value is reported as “C (C≧75%)”.

Consider `Cc1cccc(-c2c(Cl)sc3c2C(=O)C(C)(c2cccc(F)c2)C(=O)N3)c1` (stereo not drawn) [No 158, 2-chloro-5-(3-fluorophenyl)-5-methyl-3-(m-tolyl)-7H-thieno[2,3-b]pyridine-4,6-dione], for which the “Activity: Ratio between the % of control” value is reported as “A (0%<A<50%)”.

Turning to `COc1cc(-c2csc3c2C(=O)C(F)(c2ccccc2)C(=O)N3)ccc1Br` (stereo not drawn) [No 159, 3-(4-bromo-3-methoxy-phenyl)-5-fluoro-5-phenyl-7H-thieno[2,3-b]pyridine-4,6-dione], the “Activity: Ratio between the % of control” value is recorded as “C (C≧75%)”.

Turning to `COc1cc(-c2c(F)sc3c2C(=O)C(F)(c2ccccc2)C(=O)N3)ccc1Br` (stereo not drawn) [No 160, 3-(4-bromo-3-methoxy-phenyl)-2,5-difluoro-5-phenyl-7H-thieno[2,3-b]pyridine-4,6-dione], the “Activity: Ratio between the % of control” value is recorded as “B (50%≦B<75%)”.

With `O=C1Nc2scc(-c3cccc(Br)c3)c2C(=O)C1(F)c1ccccc1` (stereo not drawn) [No 163, 3-(3-bromophenyl)-5-fluoro-5-phenyl-7H-thieno[2,3-b]pyridine-4,6-dione], the “Activity: Ratio between the % of control” value is “B (50%≦B<75%)”.

On to `O=C1Nc2sc(F)c(-c3cccc(Br)c3)c2C(=O)C1(F)c1ccccc1` (stereo not drawn) [No 164, 3-(3-bromophenyl)-2,5-difluoro-5-phenyl-7H-thieno[2,3-b]pyridine-4,6-dione], for which the “Activity: Ratio between the % of control” value was “C (C≧75%)”.

Turning to `COc1ccc(C2(F)C(=O)Nc3sc(F)c(-c4ccc(F)cc4)c3C2=O)cc1` (stereo not drawn) [No 165, 2,5-difluoro-3-(4-fluorophenyl)-5-(4-methoxyphenyl)-7H-thieno[2,3-b]pyridine-4,6-dione], the “Activity: Ratio between the % of control” value is reported as “C (C≧75%)”.

With `O=C1Nc2scc(-c3ccc(Br)cc3)c2C(=O)C1(F)c1cccnc1` (stereo not drawn) [No 166, 3-(4-bromophenyl)-5-fluoro-5-(3-pyridyl)-7H-thieno[2,3-b]pyridine-4,6-dione], the “Activity: Ratio between the % of control” value was “A (0%<A<50%)”.

Take `COc1ccc(C2(F)C(=O)Nc3scc(-c4ccccc4)c3C2=O)cc1` (stereo not drawn) [No 167, 5-fluoro-5-(4-methoxyphenyl)-3-phenyl-7H-thieno[2,3-b]pyridine-4,6-dione]: the “Activity: Ratio between the % of control” value was “A (0%<A<50%)”.

Regarding `COc1ccc(C2(F)C(=O)Nc3sc(F)c(-c4ccccc4)c3C2=O)cc1` (stereo not drawn) [No 168, 2,5-difluoro-5-(4-methoxyphenyl)-3-phenyl-7H-thieno[2,3-b]pyridine-4,6-dione], the “Activity: Ratio between the % of control” value was “A (0%<A<50%)”.

For `COc1ccc(C2(F)C(=O)Nc3sc(Cl)c(-c4ccc(F)cc4O)c3C2=O)cc1` (stereo not drawn) [No 169, 2-chloro-5-fluoro-3-(4-fluoro-2-hydroxy-phenyl)-5-(4-methoxyphenyl)-7H-thieno[2,3-b]pyridine-4,6-dione], the “Activity: Ratio between the % of control” value was “C (C≧75%)”.

With `Cc1cccc(-c2c(Cl)sc3c2C(=O)C(C)(c2ccc(F)cc2)C(=O)N3)c1` (stereo not drawn) [No 170, 2-chloro-5-(4-fluorophenyl)-5-methyl-3-(m-tolyl)-7H-thieno[2,3-b]pyridine-4,6-dione], the “Activity: Ratio between the % of control” value is on record as “A (0%<A<50%)”.

Turning to `Cc1cccc(-c2c(Cl)sc3c2C(=O)C(C)(c2cccc(C)c2)C(=O)N3)c1` (stereo not drawn) [No 171, 2-chloro-5-methyl-3,5-bis(m-tolyl)-7H-thieno[2,3-b]pyridine-4,6-dione], the “Activity: Ratio between the % of control” value is “A (0%<A<50%)”.

On to `O=C1Nc2scc(-c3ccc(Cl)cc3)c2C(=O)C1(F)c1ccccc1` (stereo not drawn) [No 172, 3-(4-chlorophenyl)-5-fluoro-5-phenyl-7H-thieno[2,3-b]pyridine-4,6-dione], for which the “Activity: Ratio between the % of control” value is “B (50%≦B<75%)”.

Turning to `O=C1Nc2sc(F)c(-c3ccc(Cl)cc3)c2C(=O)C1(F)c1ccccc1` (stereo not drawn) [No 173, 3-(4-chlorophenyl)-2,5-difluoro-5-phenyl-7H-thieno[2,3-b]pyridine-4,6-dione], the “Activity: Ratio between the % of control” value is recorded as “B (50%≦B<75%)”.

Regarding `O=C1Nc2scc(-c3ccc(F)cc3OCc3ccccc3)c2C(=O)C1(F)c1ccccc1` (stereo not drawn) [No 174, 3-(2-benzyloxy-4-fluoro-phenyl)-5-fluoro-5-phenyl-7H-thieno[2,3-b]pyridine-4,6-dione], the “Activity: Ratio between the % of control” value is given as “A (0%<A<50%)”.

Turning to `O=C1Nc2sc(F)c(-c3ccc(F)cc3OCc3ccccc3)c2C(=O)C1(F)c1ccccc1` (stereo not drawn) [No 175, 3-(2-benzyloxy-4-fluoro-phenyl)-2,5-difluoro-5-phenyl-7H-thieno[2,3-b]pyridine-4,6-dione], the “Activity: Ratio between the % of control” value was “A (0%<A<50%)”.

In the case of `Cc1cccc(C2(Cl)C(=O)Nc3sc(Cl)c(-c4ccc(F)cc4O)c3C2=O)c1` (stereo not drawn) [No 176, 2,5-dichloro-3-(4-fluoro-2-hydroxy-phenyl)-5-(m-tolyl)-7H-thieno[2,3-b]pyridine-4,6-dione], the “Activity: Ratio between the % of control” value is given as “C (C≧75%)”.

As for `O=C1Nc2scc(-c3ccccc3F)c2C(=O)C1(F)c1ccccc1` (stereo not drawn) [No 177, 5-fluoro-3-(2-fluorophenyl)-5-phenyl-7H-thieno[2,3-b]pyridine-4,6-dione], the “Activity: Ratio between the % of control” value is given as “A (0%<A<50%)”.

For the compound `O=C1Nc2sc(F)c(-c3ccccc3F)c2C(=O)C1(F)c1ccccc1` (stereo not drawn) [No 178, 2,5-difluoro-3-(2-fluorophenyl)-5-phenyl-7H-thieno[2,3-b]pyridine-4,6-dione], the “Activity: Ratio between the % of control” value is on record as “B (50%≦B<75%)”.

As to `O=C1Nc2scc(-c3ccc(F)cc3F)c2C(=O)C1(F)c1ccccc1` (stereo not drawn) [No 179, 3-(2,4-difluorophenyl)-5-fluoro-5-phenyl-7H-thieno[2,3-b]pyridine-4,6-dione], the “Activity: Ratio between the % of control” value is given as “A (0%<A<50%)”.

On to `COc1ccccc1-c1csc2c1C(=O)C(F)(c1ccccc1)C(=O)N2` (stereo not drawn) [No 180, 5-fluoro-3-(2-methoxyphenyl)-5-phenyl-7H-thieno[2,3-b]pyridine-4,6-dione], for which the “Activity: Ratio between the % of control” value is given as “A (0%<A<50%)”.

For `COc1ccccc1-c1c(F)sc2c1C(=O)C(F)(c1ccccc1)C(=O)N2` (stereo not drawn) [No 181, 2,5-difluoro-3-(2-methoxyphenyl)-5-phenyl-7H-thieno[2,3-b]pyridine-4,6-dione], the “Activity: Ratio between the % of control” value is reported as “A (0%<A<50%)”.
